Measurements from patent US10646494B2, “Heterocycle-substituted tetracyclic compounds and methods of use thereof for the treatment of viral diseases” (Merck Sharp & Dohme Corp., priority 2016, dated 2020).
Like-named read-outs stand apart in the source and are kept apart here.

Tests used:
Design in all cases: species or system Hepatitis C virus (HCV)
HCV replicon 1A = experiment: Cell-based HCV replicon assay (Replicon Assay A), replicon 1A; settings: replicon RNA by real time PCR, cells harvested on day 3
Experimental: (§1) To measure cell-based anti-HCV activity of compounds of the present invention, two complimentary assays were employed using various replicons. In the first assay (“Replicon Assay A”), replicon cells were seeded at 2000 cells/well in 384-well 384-well flat bottom tissue culture treated clear bottom plate (Corning 3707) in the presence of the test compound. Various concentrations of test compound, typically in 10 serial dilutions, were added to the assay mixture, with the starting concentration ranging from 333.3 nM to […]. The final concentration of DMSO was 0.5%. Fetal bovine serum was 5%, in the assay media. Cells were harvested on day 3 by removing media and washing the cells with a suitable wash buffer. The cells are lysed with the addition of 1× Qiagen lysis buffer (Cat #1062731). The replicon RNA level was measured using real time PCR (TaqMan® EZ RT-PCR, Applied Biosystems 403028) with the following primers and probes: […]
(§2) Cyclophilin RNA was used as endogenous control and was amplified in the same reaction as NS5B (multiplex PCR). The real-time RT-PCR reactions were run on ABI PRISM 7900HT Sequence Detection System using the following program: 50° C. for 2 minutes, 60° C. for 30 minutes, 95° C. for 5 minutes, 40 cycles of 94° C. for 20 sec, 55° C. for 1 minutes.
(§3) The amount of HCV replicon RNA per cell is quantified using a linear regression curve for a known nanogram (ng) amount of HCV replicon total RNA. This is established by plotting the Cycle Threshold values (Ct) from the Neo probe and primer set versus the log (ng) for each HCV replicon total RNA standard. The amount of HCV RNA for each replicon sample is calculated by taking the sample's Ct value, minus the line intercept, divided by the slope of the line. Similarly, the amount of Cyclophilin mRNA per cell is also quantified using a linear regression curve for a known nanogram (ng) amount of HCV replicon total RNA. Again, this is established by plotting the Cycle Threshold values (Ct) from the Cyclophilin probe and primer set versus the log (ng) for each HCV replicon total RNA standard.
(§4) Data was obtained for various compounds of the present invention using the methods described in the Example above, and is presented in the table immediately below. Data for replicons 1A, 1AY93H and 2B were obtained using Replicon Assay A and data for replicons 1B were obtained using Replicon Assay B.

HCV replicon 2B = experiment: Cell-based HCV replicon assay (Replicon Assay A), replicon 2B; settings: read-out: Replicon EC50 (nM) 2B, replicon 2B, replicon RNA by real time PCR, cells harvested on day 3
Experimental: as §1, §2, §3, §4

HCV replicon 1A Y93H = experiment: Cell-based HCV replicon assay (Replicon Assay A), replicon 1AY93H; settings: read-out: Replicon EC50 (nM) 1A Y93H, replicon 1A Y93H, replicon RNA by real time PCR, cells harvested on day 3
Experimental: as §1, §2, §3, §4

SMILES	EC50 (HCV replicon 1A) [nM]	EC50 (HCV replicon 2B; Hepatitis C virus, 72 h) [nM]	EC50 (HCV replicon 1A Y93H) [nM]	EC50 (HCV replicon 2B) [nM]	EC50 (HCV replicon 1A; Hepatitis C virus, 72 h) [nM]	EC50 (HCV replicon 1A Y93H; Hepatitis C virus, 72 h) [nM]
COC(=O)N[C@H](C(=O)N1CCC[C@@H]1c1ncc(-c2ccc3c(c2)cc2n3C(c3cnco3)Oc3cc(-c4cnc([C@H]5CCCN5C(=O)[C@H](NC(=O)OC)C(C)C)[nH]4)cc(F)c3-2)[nH]1)C(C)C (single isomer, unassigned) [Compound 17]	0.0327	3.96	0.716	–	–	–
COC(=O)N[C@H](C(=O)N1CCC[C@H]1c1ncc(-c2cc(F)c3c(c2)OC(c2nc(C(C)C)ns2)n2c-3cc3cc(-c4cnc([C@@H]5CCCN5C(=O)[C@@H](NC(=O)OC)C(C)C)[nH]4)ccc32)[nH]1)C(C)C (single isomer, unassigned) [Compound 32]	0.0022	–	0.185	0.9	–	–
COC(=O)N[C@H](C(=O)N1CCC[C@H]1c1ncc(-c2cc(F)c3c(c2)O[C@@H](c2cc(C(C)C)no2)n2c-3cc3cc(-c4cnc([C@@H]5CCCN5C(=O)[C@@H](NC(=O)OC)C(C)C)[nH]4)ccc32)[nH]1)C(C)C (single isomer, unassigned) [Compound 10]	0.0027	–	1.43	1.05	–	–
COC(=O)N[C@H](C(=O)N1CCC[C@H]1c1ncc(-c2ccc3c(c2)OC(c2ccc(C)o2)n2c-3cc3cc(-c4cnc([C@@H]5CCCN5C(=O)[C@@H](NC(=O)OC)C(C)C)[nH]4)ccc32)[nH]1)C(C)C (stereo partly drawn) [Compound 42]	–	6.16	–	–	0.0309	5.01
COC(=O)N[C@H](C(=O)N1CCC[C@H]1c1ncc(-c2cc(F)c3c(c2)OC(c2nc(C(C)C)ns2)n2c-3cc3cc(-c4cnc([C@@H]5CCCN5C(=O)[C@@H](NC(=O)OC)C(C)C)[nH]4)ccc32)[nH]1)C(C)C (single isomer, unassigned) [Compound 31]	–	1.64	5.65	–	0.0013	–
CCc1cc([C@@H]2Oc3cc(-c4cnc([C@@H]5CCCN5C(=O)[C@@H](NC(=O)OC)C(C)C)[nH]4)cc(F)c3-c3cc4cc(-c5cnc([C@@H]6CCCN6C(=O)[C@@H](NC(=O)OC)C(C)C)[nH]5)ccc4n32)on1 (single isomer, unassigned) [Compound 8]	–	–	0.603	1.23	0.004	–
CCc1cnc(C2Oc3cc(-c4cnc([C@@H]5CCCN5C(=O)[C@@H](NC(=O)OC)C(C)C)[nH]4)cc(F)c3-c3cc4cc(-c5cnc([C@@H]6CCCN6C(=O)[C@@H](NC(=O)OC)C(C)C)[nH]5)ccc4n32)o1 (single isomer, unassigned) [Compound 28]	0.0021	–	–	2.09	–	0.31
COC(=O)N[C@H](C(=O)N1CCC[C@H]1c1ncc(-c2cc(F)c3c(c2)OC(c2nc4ccccc4o2)n2c-3cc3cc(-c4cnc([C@@H]5CCCN5C(=O)[C@@H](NC(=O)OC)C(C)C)[nH]4)ccc32)[nH]1)C(C)C (single isomer, unassigned) [Compound 19]	–	–	4.36	2.67	0.0016	–
COC(=O)N[C@H](C(=O)N1CCC[C@H]1c1ncc(-c2cc(F)c3c(c2)OC(c2nc(C)co2)n2c-3cc3cc(-c4cnc([C@@H]5CCCN5C(=O)[C@@H](NC(=O)OC)C(C)C)[nH]4)ccc32)[nH]1)C(C)C (single isomer, unassigned) [Compound 23]	–	–	12.7	6.16	0.0031	–
